In patent publication US20230192878A1, “METHODS, THERAPIES AND USES FOR TREATING CANCER” (PFIZER INC., priority 2020, published 2023):

Columns and labels:
MM.1S [1] = assay: Soluble BCMA (sBCMA) shedding after GSI (ELISA); assay type: cell-based, Human; design: unit not given here; settings: Table 6 (sBCMA in supernatant, ELISA), 24 hours
RPMI8226 = assay: Cell surface BCMA expression after GSI, time course and washout; assay type: cell-based
Protocol: (§1) Multiple myeloma cells (MM.1S, OPM2, H929, Molp8, RPMI8226) were seeded in a 6-well plate at 800,000 cells/2 ml/well with GSI diluted at 1 μM in RPMI medium (with 0.1% DMSO). Cells were collected to evaluate cell surface BCMA expression at baseline, and then at 3 hours, 6 hours and 24 hours after addition of the GSI. After 24 hours of incubation with the GSI, cells were washed twice in PBS and re-plated in fresh 6-well plates. […] At the indicated time points, samples were stained with a ZombieNIR Viability dye (Biolegend) for 20 minutes at room temperature at 1 in 500 dilution in PBS, washed with PBS+2% FBS and further stained with anti-BCMA PE-labelled antibody diluted in PBS+2% FBS for 30 minutes at 4° C. Samples were acquired on BD Flow Cytometer and analyzed using FlowJo software. Dead cells were removed from the analysis by gating on ZombieNIR negative population. BCMA MFI was plotted as a histogram.

H929 = assay: as above; assay type: cell-based
Protocol: as §1

MM.1S [2] = assay: as above; assay type: cell-based
Protocol: as §1

Molp8 = assay: as above; assay type: cell-based
Protocol: as §1

OPM2 [3] = assay: as above; assay type: cell-based
Protocol: as §1

OPM2 [4] = assay: Soluble BCMA (sBCMA) shedding after GSI (ELISA); assay type: cell-based, Human; design: unit not given here; settings: Table 6 (sBCMA in supernatant, ELISA), 24 hours
MM.1S-Luc-PD-L1 = assay: Orthotopic MM.1S-Luc-PD-L1 multiple myeloma mouse model; assay type: in vivo, NSG mice; settings: bispecific 10 μg/kg IV once (day 21), anti-PD-1 5 mg/kg IP twice a week
Protocol: MM.1 S-Luc multiple myeloma cells were engineered to express PD-L1 and are referred to as MM.1S-Luc-PD-L1. MM.1S-Luc-PD-L1 cells were prepared as a single cell suspension of 5×10^6 cells for intravenous (IV) inoculation into NSG mice.
Tumor growth was monitored by luminescent imaging by intraperitoneal (IP) injection of luciferin solution in DPBS and imaged using Perkin Elmer IVIS Spectrum camera system. Animals were administered 2×10^7 expanded human T cells IV 19 days after tumor cell inoculation. Two days following T cell administration, a single dose of the BCMAxCD3 bispecific (10 μg/kg) was administered as a bolus IV injection. Anti-PD-1 antibody was administered twice a week as a bolus IP injection at 5 mg/kg for a total of 6 injections.
Tumor growth was monitored via imaging measurements collected twice weekly. Mice were imaged using the Perkin Elmer IVIS Spectrum camera system with automatic parameter determination and a maximum imaging time of 3 minutes. Living Image software was used to collect the data. Regions of Interest (ROIs) were drawn around the entire body of the mouse, excluding as much as possible of the tail. Background flux, as measured on the anesthesia manifold, is subtracted from each ROI. Tumor measurements are expressed as total flux expressed in photons/sec (p/s). Study was terminated at day 40 post tumor inoculation.

Raji-luc = assay: BCMAxCD3 bispecific mediated cell killing of lymphoma cells with human T cells, with or without GSI; assay type: cell-based; settings: 60 hours, with or without 1 μM GSI, ± SD
Protocol: CD3^+ T cells from PBMCs (Stem Cell Technologies) were negatively selected using EasySep Human T cell enrichment kit (Stem Cell Technologies). 10,000 target lymphoma cells expressing luciferase (Raji-luc) were treated with 1 μM GSI. After 24 hours, cells were seeded with 50,000 CD3^+ pan T cells in a clear 96-well V-bottom plate. Cells were further treated with a range of BCMAxCD3 bispecific concentrations with or without 1 μM GSI. 60 hours after treatment, luciferase activity in treated cells was analyzed using NeoLite reagent kit (Perkin Elmer) and acquired on VictorX multimode plate reader (Perkin Elmer). Cell viability was calculated by dividing luciferase activity of treated cells over luciferase activity of untreated control (no BCMAxCD3 bispecific antibody added).

In the case of `CCC[C@H](N[C@H]1CCc2cc(F)cc(F)c2C1)C(=O)Nc1cn(C(C)(C)CNCC(C)(C)C)cn1` [GSI, nirogacestat], the “BCMA (-PE) MFI” value (MM.1S [1]; GSI 0.01 nM) is reported as 3794.2, the “BCMA (-PE) MFI” value (MM.1S [1]; GSI 0.1 nM) is reported as 5797.5 and the “BCMA (-PE) MFI” value (MM.1S [1]; GSI 1 nM) is reported as 5143.1. For the same compound, the “BCMA (-PE) MFI” value (MM.1S [1]; GSI 2.5 nM) was 3988.3, the “BCMA (-PE) MFI” value (MM.1S [1]; GSI 5 nM) was 2453.6 and the “BCMA (-PE) MFI” value (MM.1S [1]; GSI 10 nM) was 1661.5. For the same compound, the “BCMA (-PE) MFI” value (MM.1S [1]; GSI 25 nM) was 630.5, the “BCMA (-PE) MFI” value (MM.1S [1]; GSI 50 nM) was 279.9 and the “BCMA (-PE) MFI” value (MM.1S [1]; GSI 100 nM) was 21.3. The “BCMA (-PE) MFI” value (MM.1S [1]; GSI 500 nM) was 151.8, the “BCMA (-PE) MFI” value (MM.1S [1]; GSI 1000 nM) was 350 and the “BCMA (-PE) MFI” value (RPMI8226; RPMI8226, GSI 1 μM for 24 h, 3 h post wash) was 6557. The “BCMA (-PE) MFI” value (RPMI8226; RPMI8226, GSI 1 μM for 24 h, 5 h post wash) was 4437, the “BCMA (-PE) MFI” value (RPMI8226; RPMI8226, GSI 1 μM for 24 h, 24 h post wash) was 2688 and the “BCMA (-PE) MFI” value (RPMI8226; RPMI8226, GSI 1 μM, 3 h after GSI) was 4437. The “BCMA (-PE) MFI” value (RPMI8226; RPMI8226, GSI 1 μM, 6 h after GSI) was 4527, the “BCMA (-PE) MFI” value (RPMI8226; RPMI8226, GSI 1 μM, 24 h after GSI) was 6340 and the “BCMA (-PE) MFI” value (H929; H929, GSI 1 μM for 24 h, 3 h post wash) was 15422. The “BCMA (-PE) MFI” value (H929; H929, GSI 1 μM for 24 h, 5 h post wash) was 9313, the “BCMA (-PE) MFI” value (H929; H929, GSI 1 μM for 24 h, 24 h post wash) was 8423 and the “BCMA (-PE) MFI” value (H929; H929, GSI 1 μM, 3 h after GSI) was 3653. For the same compound, the “BCMA (-PE) MFI” value (H929; H929, GSI 1 μM, 6 h after GSI) was 3423, the “BCMA (-PE) MFI” value (H929; H929, GSI 1 μM, 24 h after GSI) was 8245 and the “BCMA (-PE) MFI” value (MM.1S [2]; GSI 1 μM for 24 h, 3 h post wash) was 33509. For the same compound, the “BCMA (-PE) MFI” value (MM.1S [2]; GSI 1 μM for 24 h, 5 h post wash) was 23906, the “BCMA (-PE) MFI” value (MM.1S [2]; GSI 1 μM for 24 h, 24 h post wash) was 11170 and the “BCMA (-PE) MFI” value (MM.1S [2]; GSI 1 μM, 3 h after GSI) was 13690. For the same compound, the “BCMA (-PE) MFI” value (MM.1S [2]; GSI 1 μM, 6 h after GSI) was 14920, the “BCMA (-PE) MFI” value (MM.1S [2]; GSI 1 μM, 24 h after GSI) was 25602 and the “BCMA (-PE) MFI” value (Molp8; Molp8, GSI 1 μM for 24 h, 3 h post wash) was 7523. For the same compound, the “BCMA (-PE) MFI” value (Molp8; Molp8, GSI 1 μM for 24 h, 5 h post wash) was 5050, the “BCMA (-PE) MFI” value (Molp8; Molp8, GSI 1 μM for 24 h, 24 h post wash) was 2960 and the “BCMA (-PE) MFI” value (Molp8; Molp8, GSI 1 μM, 3 h after GSI) was 2461. For the same compound, the “BCMA (-PE) MFI” value (Molp8; Molp8, GSI 1 μM, 6 h after GSI) was 3098, the “BCMA (-PE) MFI” value (Molp8; Molp8, GSI 1 μM, 24 h after GSI) was 5307 and the “BCMA (-PE) MFI” value (OPM2 [3]; OPM2, GSI 1 μM for 24 h, 3 h post wash) was 21621. The “BCMA (-PE) MFI” value (OPM2 [3]; OPM2, GSI 1 μM for 24 h, 5 h post wash) was 11050, the “BCMA (-PE) MFI” value (OPM2 [3]; OPM2, GSI 1 μM for 24 h, 24 h post wash) was 2624 and the “BCMA (-PE) MFI” value (OPM2 [3]; OPM2, GSI 1 μM, 3 h after GSI) was 9257. For the same compound, the “BCMA (-PE) MFI” value (OPM2 [3]; OPM2, GSI 1 μM, 6 h after GSI) was 9854, the “BCMA (-PE) MFI” value (OPM2 [3]; OPM2, GSI 1 μM, 24 h after GSI) was 20592 and the “BCMA (-PE) MFI” value (OPM2 [4]; OPM2, GSI 0.01 nM) was 6043.3. The “BCMA (-PE) MFI” value (OPM2 [4]; OPM2, GSI 0.1 nM) was 8872.2, the “BCMA (-PE) MFI” value (OPM2 [4]; OPM2, GSI 1 nM) was 8014 and the “BCMA (-PE) MFI” value (OPM2 [4]; OPM2, GSI 2.5 nM) was 7726.5. For the same compound, the “BCMA (-PE) MFI” value (OPM2 [4]; OPM2, GSI 5 nM) was 7617.3, the “BCMA (-PE) MFI” value (OPM2 [4]; OPM2, GSI 10 nM) was 6488.6 and the “BCMA (-PE) MFI” value (OPM2 [4]; OPM2, GSI 25 nM) was 4487.9. For the same compound, the “BCMA (-PE) MFI” value (OPM2 [4]; OPM2, GSI 50 nM) was 3055.7, the “BCMA (-PE) MFI” value (OPM2 [4]; OPM2, GSI 100 nM) was 1238.6 and the “BCMA (-PE) MFI” value (OPM2 [4]; OPM2, GSI 500 nM) was 23.8. The “BCMA (-PE) MFI” value (OPM2 [4]; OPM2, GSI 1000 nM) was 0.
“PF-06863135: heterodimeric humanized full-length bispecific antibody with one BCMA binding arm and one CD3 binding arm” was tested, and the “Tumor measurements expressed as total flux” value (shortened to “Tumor measurements expressed”) (MM.1S-Luc-PD-L1; day 15 post tumor cell inoculation) was 1.513 × 10^7 p/s, the “Tumor measurements expressed” value (MM.1S-Luc-PD-L1; day 18 post tumor cell inoculation) was 8.343 × 10^7 p/s and the “Tumor measurements expressed” value (MM.1S-Luc-PD-L1; day 20 post tumor cell inoculation) was 1.788 × 10^8 p/s. For the same compound, the “Tumor measurements expressed” value (MM.1S-Luc-PD-L1; day 25 post tumor cell inoculation) was 2.2729 × 10^7 p/s, the “Tumor measurements expressed” value (MM.1S-Luc-PD-L1; day 28 post tumor cell inoculation) was 7.082 × 10^7 p/s and the “Tumor measurements expressed” value (MM.1S-Luc-PD-L1; day 32 post tumor cell inoculation) was 7.076 × 10^7 p/s. The “Raji Cell Viability (% control)” value (Raji-luc; BCMAxCD3 0.00064 nM) was 94 ± 3.7 % control, the “Raji Cell Viability (% control)” value (Raji-luc; BCMAxCD3 0.0032 nM) was 107 ± 4.5 % control and the “Raji Cell Viability (% control)” value (Raji-luc; BCMAxCD3 0.016 nM) was 105.8 ± 10.2 % control. For the same compound, the “Raji Cell Viability (% control)” value (Raji-luc; BCMAxCD3 0.08 nM) was 89.3 ± 5.7 % control, the “Raji Cell Viability (% control)” value (Raji-luc; BCMAxCD3 0.4 nM) was 88.1 ± 18.4 % control and the “Raji Cell Viability (% control)” value (Raji-luc; BCMAxCD3 2 nM) was 71 ± 9.7 % control. For the same compound, the “Raji Cell Viability (% control)” value (Raji-luc; BCMAxCD3 10 nM) was 82.1 ± 9.7 % control and the “Raji Cell Viability (% control)” value (Raji-luc; BCMAxCD3 50 nM) was 80 ± 13.2 % control.
